Test results reported in patent US20080280879A1, “SUBSTITUTED HETEROCYCLIC DERIVATIVES AND THEIR PHARMACEUTICAL USE AND COMPOSITIONS” (priority 2007, published 2008).
≈ marks a conversion by molar mass, not a printed value.

How the values were obtained:
Assay type in all cases: cell-based, Staphylococcus aureus
Staph aureus 1095 MRSA = assay: MIC, microtiter broth dilution (CLSI M7-A7), Assay 1, Table 12 column A, no serum; conditions: Assay 1, no serum; for MIC: Staphylococcus aureus, MRSA
Outline: (§1)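 MIC read as lowest drug level giving no macroscopically visible growth, μg/ml. Method: CLSI M7-A7 microtiter broth dilution, M100-S16 interpretation. Serum arm: inoculum in Mueller-Hinton Broth + 50% pooled inactivated human serum. Multiple runs → geometric mean.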

Staph aureus 1146 [1] = assay: MIC, microtiter broth dilution (CLSI M7-A7), Assay 1, Table 12 column B, no serum; conditions: for MIC: Staphylococcus aureus, 1146, Staph aureus 1146, Assay 1, no serum; for MIC, column B: Staph aureus 1146, Assay 1, no serum
Outline: as §1

Staph aureus 1146 [2] = assay: MIC in Mueller-Hinton Broth with 50% pooled inactivated human serum, Assay 1, Table 12; conditions: for MIC: Staphylococcus aureus, 1146, Staph aureus 1146, Assay 1, 50% human serum, read-out: MIC, column C; for MIC, column C: Staph aureus 1146, Assay 1, 50% human serum
Outline: as §1

Staph aureus 2811 = assay: MIC, microtiter broth dilution (CLSI M7-A7), Assay 1, Table 12 column D, no serum; conditions: for MIC: Staphylococcus aureus, 2811, Staph aureus 2811, Assay 1, no serum; for MIC, column D: Staph aureus 2811, Assay 1, no serum
Outline: as §1

Staph aureus 2812 = assay: MIC, microtiter broth dilution (CLSI M7-A7), Assay 1, Table 12 column E, no serum; conditions: for MIC: Staphylococcus aureus, 2812, Staph aureus 2812, Assay 1, no serum; for MIC, column E: Staph aureus 2812, Assay 1, no serum
Outline: as §1

| SMILES | MIC (Staph aureus 1095 MRSA) [µg/mL] | MIC (Staph aureus 1146 [1]) [µg/mL] | MIC (Staph aureus 1146 [2]) [µg/mL] | MIC (Staph aureus 2811) [µg/mL] | MIC (Staph aureus 2812) [µg/mL] | MIC, column A (Staph aureus 1095 MRSA) | MIC, column B (Staph aureus 1146 [1]) | MIC, column C (Staph aureus 1146 [2]) [µg/mL] | MIC, column D (Staph aureus 2811) | MIC, column E (Staph aureus 2812) |
| --- | --- | --- | --- | --- | --- | --- | --- | --- | --- | --- |
| COc1ccc2nccc(C(CC[C@@H]3CCN(C4CC(c5ccccc5)C4)C[C@@H]3C(=O)O)N3CCC3)c2c1 (stereo partly drawn) [Example 137, (3R,4R)-4-[3-Azetidin-1-yl-3-(6-methoxy-quinolin-4-yl)-propyl]-1-(3-phenylcyclobutyl)piperidine-3-carboxylic acid] | > 64 | 64 (≈ 125 µM) | > 64 | 64 (≈ 125 µM) | 64 (≈ 125 µM) | – | – | – | – | – |
| COc1ccc2nccc(C(CC[C@@H]3CCN(C4CC(c5ccccc5)C4)C[C@@H]3C(=O)O)N3CCOCC3)c2c1 (stereo partly shown) [Example 139] | – | – | – | – | – | 2 µg/mL (≈ 3.68 µM) | 2 µg/mL (≈ 3.68 µM) | 16 (≈ 29.4 µM) | 4 µg/mL (≈ 7.36 µM) | 2 µg/mL (≈ 3.68 µM) |
| O=C(O)[C@H]1CN(C2CC(c3ccccc3)C2)CC[C@H]1CCC(O)c1ccnc2ccc(OC(F)F)cc12 (stereo partly shown) [Example 143] | – | – | – | – | – | 1 µg/mL (≈ 1.96 µM) | 0.5 µg/mL (≈ 0.979 µM) | 2 (≈ 3.92 µM) | 0.5 µg/mL (≈ 0.979 µM) | 1 µg/mL (≈ 1.96 µM) |
| COc1ccc2nccc(C(O)CC[C@@H]3CCN(C4CC(c5ccccc5)C4)C[C@@H]3C(N)=O)c2c1 (stereo partly shown) [Example 144] | – | – | – | – | – | <=.0625 μg/ml | <=.0625 μg/ml | 0.25 (≈ 0.528 µM) | <=.0625 μg/ml | <=.0625 μg/ml |
| COc1ccc2nccc(C(O)CC[C@@H]3CCN(C4CC(c5nc(C6CCC6)no5)C4)C[C@@H]3C(=O)O)c2c1 (stereo partly drawn) [Example 163, (3R,4R)-1-[3-(3-cyclobutyl-1,2,4-oxadiazol-5-yl)cyclobutyl]-4-[3-hydroxy-3-(6-methoxyquinolin-4-yl)propyl]piperidine-3-carboxylic acid] | > 64 | 64 (≈ 123 µM) | > 64 | > 64 | > 64 | – | – | – | – | – |
| COc1ccc2nccc(C(O)CC[C@@H]3CCN(C4CC(c5nc(C(C)(C)C)no5)C4)C[C@@H]3C(=O)O)c2c1 (stereo partly drawn) [Example 164, (3R,4R)-1-[3-(3-tert-butyl-1,2,4-oxadiazol-5-yl)cyclobutyl]-4-[3-hydroxy-3-(6-methoxyquinolin-4-yl)propyl]piperidine-3-carboxylic acid] | > 64 | 64 (≈ 122 µM) | > 64 | 64 (≈ 122 µM) | 64 (≈ 122 µM) | – | – | – | – | – |
| COc1ccc2nccc(C(O)CC[C@@H]3CCN(C4CC(c5nc(C6CC6)no5)C4)C[C@@H]3C(=O)O)c2c1 (stereo partly drawn) [Example 165, (3R,4R)-1-[3-(3-cyclopropyl-1,2,4-oxadiazol-5-yl)cyclobutyl]-4-[3-hydroxy-3-(6-methoxyquinolin-4-yl)propyl]piperidine-3-carboxylic acid] | > 64 | 32 (≈ 63.2 µM) | > 64 | 32 (≈ 63.2 µM) | 64 (≈ 126 µM) | – | – | – | – | – |
| COc1ccc2nccc(C(O)CC[C@@H]3CCN(C4CC(c5nc(C(C)C)no5)C4)C[C@@H]3C(=O)O)c2c1 (stereo partly drawn) [Example 166, (3R,4R)-4-[3-hydroxy-3-(6-methoxyquinolin-4-yl)propyl]-1-[3-(3-isopropyl-1,2,4-oxadiazol-5-yl)cyclobutyl]piperidine-3-carboxylic acid] | > 64 | > 64 | > 64 | > 64 | > 64 | – | – | – | – | – |
| CCCc1noc(C2CC(N3CC[C@@H](CCC(O)c4ccnc5ccc(OC)cc45)[C@@H](C(=O)O)C3)C2)n1 (stereo partly drawn) [Example 167, (3R,4R)-4-[3-hydroxy-3-(6-methoxyquinolin-4-yl)propyl]-1-[3-(3-propyl-1,2,4-oxadiazol-5-yl)cyclobutyl]piperidine-3-carboxylic acid] | > 64 | > 64 | > 64 | > 64 | > 64 | – | – | – | – | – |

The next lines start with results.

| MIC (Staph aureus 1095 MRSA) [µg/mL] | MIC (Staph aureus 1146 [1]) [µg/mL] | MIC (Staph aureus 1146 [2]) [µg/mL] | MIC (Staph aureus 2811) [µg/mL] | MIC (Staph aureus 2812) [µg/mL] | SMILES | MIC, column A (Staph aureus 1095 MRSA) | MIC, column B (Staph aureus 1146 [1]) | MIC, column C (Staph aureus 1146 [2]) [µg/mL] | MIC, column D (Staph aureus 2811) | MIC, column E (Staph aureus 2812) |
| --- | --- | --- | --- | --- | --- | --- | --- | --- | --- | --- |
| 0.25 (≈ 0.529 µM) | 0.25 (≈ 0.529 µM) | 8 (≈ 16.9 µM) | 0.125 (≈ 0.265 µM) | 0.25 (≈ 0.529 µM) | COc1ccc2nccc(C(=O)CC[C@@H]3CCN(C4CC(c5ccccc5)C4)C[C@@H]3C(=O)O)c2c1 (stereo partly drawn) [Example 135, (3R,4R)-4-[3-(6-Methoxy-quinolin-4-yl)-3-oxo-propyl]-1-(3-phenyl-cyclobutyl)-piperidine-3-carboxylic acid] | – | – | – | – | – |
| 8 (≈ 16.4 µM) | 4 (≈ 8.2 µM) | 4 (≈ 8.2 µM) | 4 (≈ 8.2 µM) | 8 (≈ 16.4 µM) | CNC(CC[C@@H]1CCN(C2CC(c3ccccc3)C2)C[C@@H]1C(=O)O)c1ccnc2ccc(OC)cc12 (stereo partly drawn) [Example 136, (3R,4R)-4-[3-(6-Methoxy-quinolin-4-yl)-3-methylamino-propyl]-1-(3-phenyl-cyclobutyl)-piperidine-3-carboxylic acid] | – | – | – | – | – |
| 2 (≈ 4.22 µM) | 1 (≈ 2.11 µM) | 0.5 (≈ 1.06 µM) | 0.5 (≈ 1.06 µM) | 2 (≈ 4.22 µM) | COc1ccc2nccc(C(N)CC[C@@H]3CCN(C4CC(c5ccccc5)C4)C[C@@H]3C(=O)O)c2c1 (stereo partly drawn) [Example 138, (3R,4R)-4-[3-Amino-3-(6-methoxy-quinolin-4-yl)-propyl]-1-(3-phenyl-cyclobutyl)-piperidine-3-carboxylic acid] | – | – | – | – | – |
| 16 (≈ 31.9 µM) | 16 (≈ 31.9 µM) | 64 (≈ 128 µM) | 16 (≈ 31.9 µM) | 16 (≈ 31.9 µM) | COc1ccc2nccc(C(CC[C@@H]3CCN(C4CC(c5ccccc5)C4)C[C@@H]3C(=O)O)N(C)C)c2c1 (stereo partly drawn) [Example 140, (3R,4R)-4-[3-(dimethylamino)-3-(6-methoxyquinolin-4-yl)propyl]-1-(3-phenylcyclobutyl)piperidine-3-carboxylic acid] | – | – | – | – | – |
| 2 (≈ 3.93 µM) | 1 (≈ 1.96 µM) | 32 (≈ 62.9 µM) | 0.5 (≈ 0.982 µM) | 1 (≈ 1.96 µM) | COc1ccc2ncc(Cl)c(C(O)CCC3(C(=O)O)CCN(C4CC(c5ccccc5)C4)CC3)c2c1 (stereo not shown) [Example 141, 4-(3-(3-chloro-6-methoxyquinolin-4-yl)-3-hydroxypropyl)-1-(3-phenylcyclobutyl)piperidine-4-carboxylic acid] | – | – | – | – | – |
| 32 (≈ 69.5 µM) | 16 (≈ 34.7 µM) | > 64 | 8 (≈ 17.4 µM) | 16 (≈ 34.7 µM) | O=C(O)[C@H]1CN(C2CC(c3ccccc3)C2)CC[C@H]1CCC(O)c1ccnc2ccc(O)cc12 (stereo partly drawn) [Example 142, (3R,4R)-4-[3-hydroxy-3-(6-hydroxyquinolin-4-yl)propyl]-1-(3-phenylcyclobutyl)piperidine-3-carboxylic acid] | – | – | – | – | – |
| 0.25 (≈ 0.513 µM) | 1 (≈ 2.05 µM) | 4 (≈ 8.2 µM) | 0.5 (≈ 1.03 µM) | 1 (≈ 2.05 µM) | CNC(=O)[C@H]1CN(C2CC(c3ccccc3)C2)CC[C@H]1CCC(O)c1ccnc2ccc(OC)cc12 (stereo partly drawn) [Example 145, (3R,4R)-4-[3-Hydroxy-3-(6-methoxy-quinolin-4-yl)-propyl]-1-(3-phenyl-cyclobutyl)-piperidine-3-carboxylic acid methylamide] | – | – | – | – | – |
| 32 (≈ 64.7 µM) | 16 (≈ 32.4 µM) | > 64 | 32 (≈ 64.7 µM) | 32 (≈ 64.7 µM) | COc1ccc2ncc(F)c(C(O)COC3(C(=O)O)CCN(C4CC(c5ccccc5)C4)CC3)c2c1 (stereo not shown) [Example 146, 4-(2-(3-fluoro-6-methoxyquinolin-4-yl)-2-hydroxyethoxy)-1-(3-phenylcyclobutyl)piperidine-4-carboxylic acid] | – | – | – | – | – |
| 4 (≈ 7.66 µM) | 1 (≈ 1.92 µM) | 2 (≈ 3.83 µM) | 0.5 (≈ 0.958 µM) | 0.5 (≈ 0.958 µM) | COc1ccc2ncc(Cl)c(CCNC3(C(=O)O)CCCN(C4CC(c5cccc(C)c5)C4)CC3)c2c1 (stereo not shown) [Example 153, 4-{[2-(3-chloro-6-methoxyquinolin-4-yl)ethyl]amino}-1-[3-(3-methylphenyl)cyclobutyl]azepane-4-carboxylic acid] | – | – | – | – | – |
| 0.25 (≈ 0.46 µM) | 0.0625 (≈ 0.115 µM) | 4 (≈ 7.35 µM) | 0.0625 (≈ 0.115 µM) | 0.0625 (≈ 0.115 µM) | COc1ccc2ncc(Cl)c(CCNC3(C(=O)O)CCCN(C4CC(c5c(F)cccc5F)C4)CC3)c2c1 (stereo not shown) [Example 154, 4-{[2-(3-chloro-6-methoxyquinolin-4-yl)ethyl]amino}-1-[3-(2,6-difluorophenyl)cyclobutyl]azepane-4-carboxylic acid] | – | – | – | – | – |
| 1 (≈ 1.9 µM) | 0.125 (≈ 0.238 µM) | 4 (≈ 7.6 µM) | 0.25 (≈ 0.475 µM) | 0.125 (≈ 0.238 µM) | COc1ccc2ncc(Cl)c(CCNC3(C(=O)O)CCCN(C4CC(c5cccc(F)c5)C4)CC3)c2c1 (stereo not shown) [Example 155, 4-{[2-(3-chloro-6-methoxyquinolin-4-yl)ethyl]amino}-1-[3-(3-fluorophenyl)cyclobutyl] azepane-4-carboxylic acid] | – | – | – | – | – |
| 1 (≈ 1.84 µM) | 0.25 (≈ 0.46 µM) | > 33 | 0.5 (≈ 0.919 µM) | 0.25 (≈ 0.46 µM) | COc1ccc2ncc(Cl)c(CCNC3(C(=O)O)CCCN(CC4CC4c4cc(F)ccc4F)CC3)c2c1 (stereo not shown) [Example 156, 4-{[2-(3-chloro-6-methoxyquinolin-4-yl)ethyl]amino}-1-{[2-(2,5-difluorophenyl)cyclopropyl]methyl}azepane-4-carboxylic acid] | – | – | – | – | – |
| 4 (≈ 6.94 µM) | 1 (≈ 1.74 µM) | > 33 | 1 (≈ 1.74 µM) | 0.5 (≈ 0.868 µM) | COc1ccc2ncc(Cl)c(CCNC3(C(=O)O)CCCN(C4CC(c5cccc(C(F)(F)F)c5)C4)CC3)c2c1 (stereo not shown) [Example 157, 4-{[2-(3-chloro-6-methoxyquinolin-4-yl)ethyl]amino}-1-{3-[3-(trifluoromethyl)phenyl]cyclobutyl}azepane-4-carboxylic acid] | – | – | – | – | – |
| 64 (≈ 129 µM) | 64 (≈ 129 µM) | > 64 | 32 (≈ 64.7 µM) | 64 (≈ 129 µM) | CCc1noc(C2CC(N3CC[C@@H](CCC(O)c4ccnc5ccc(OC)cc45)[C@@H](C(=O)O)C3)C2)n1 (stereo partly drawn) [Example 162, (3R,4R)-1-[3-(3-ethyl-1,2,4-oxadiazol-5-yl)cyclobutyl]-4-[3-hydroxy-3-(6-methoxyquinolin-4-yl)propyl]piperidine-3-carboxylic acid] | – | – | – | – | – |
